Assay results reported in PubChem BioAssay (NCI).
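All cell lines were grown in 96-well plates and treated with compound for 48 hours. The concentration for 50% growth inhibition is given as GI50. TGI: total growth inhibition.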

Tests used:
Assay in all cases: inhibition of tumour cell growth, NCI panel, 48 h
[1] = system: T-47D breast
[2] = system: NCI-H522 lung
[3] = system: RXF 393 renal
[4] = system: TK-10 renal
[5] = system: U251 CNS
[6] = system: SF-539 CNS
[7] = system: IGROV1 ovarian
[8] = system: KM12 colon
[9] = system: OVCAR-3 ovarian
[10] = system: BT-549 breast

Row | SMILES | GI50 [1] [µM] | TGI [1] [µM] | GI50 [2] [µM] | TGI [2] [µM] | GI50 [3] [µM] | TGI [3] [µM] | GI50 [4] [µM] | TGI [4] [µM] | GI50 [5] [µM] | TGI [5] [µM] | GI50 [6] [µM] | TGI [6] [µM] | GI50 [7] [µM] | TGI [7] [µM] | GI50 [8] [µM] | TGI [8] [µM] | GI50 [9] [µM] | TGI [9] [µM] | GI50 [10] [µM] | TGI [10] [µM]
1 | CCCCON(OC(=O)c1ccc2ccc3cccc4ccc1c2c34)C(C)=O | 29.7 | > 100 | 19.4 | 45.7 | 19.7 | 50.2 | 30.5 | 87.9 | 18.1 | 36.5 | 18.5 | 35.6 | 16.5 | 55.2 | 28.8 | > 100 | 31.8 | 82.7 | 19.2 | 42.7
2 | CC1=C[C@H]2c3c(c(O)c(O)c4oc(-c5ccccc5)cc(=O)c34)[C@H](c3cc(O)c(O)c4oc(-c5ccccc5)cc(=O)c34)[C@H]2C(C)(C)C1 | 1.02 | 17.1 | 1.77 | 6.23 | 0.245 | 1.86 | 1.57 | 31 | 0.415 | 18.7 | 0.364 | 7.52 | 0.486 | 7.51 | 1.41 | 8.96 | 1.46 | 12 | 1.58 | 8.59
3 | O=C1Nc2ccc(F)cc2/C1=C/c1ccc[nH]1 | 1.03 | > 14.2 | > 25 | > 25 | > 18.3 | > 25 | 14.4 | > 25 | > 25 | > 25 | > 25 | > 25 | 13.4 | > 25 | 0.787 | > 25 | > 18.4 | > 25 | > 18.8 | > 25
4 | CC(C)(C[C@H]1CN(S(=O)(=O)c2cccc(C(F)(F)F)c2)c2cc(-c3cc(F)cc(OC(F)F)c3)ccc2O1)C(=O)O | 5.19 | 29.2 | 2.5 | 10.7 | 8.43 | 24.2 | 9.07 | 27.6 | 4.51 | 17.1 | 5.41 | 19.1 | 9.43 | 27.6 | 4.38 | 16.4 | 3.76 | 14.1 | 5.9 | 22.3
5 | Br[C](Br)(Br)[Hg][c]1ccccc1 | 9.56 | 43.7 | 1.44 | 3.05 | 8.55 | 21.5 | 17.5 | 31.4 | 13.9 | 27.6 | 18 | 33.7 | 13.8 | 27.6 | 15.6 | 29.4 | 9.76 | 23.3 | 17.2 | 31.1
6 | COc1cc(/C=C/c2ccc(OC)c(OC)c2)cc(OC)c1 | – | > 100 | – | 66.4 | – | 50 | – | > 100 | – | 69 | – | > 100 | – | > 100 | – | 40.6 | – | 69 | – | 72.3
7 | CC1=C(O)C(=O)C=C2C1=CC=C1[C@@]2(C)CC[C@@]2(C)[C@@H]3C[C@](C)(C(=O)O)CC[C@]3(C)CC[C@]12C | – | 0.0807 | – | 0.0389 | – | 0.024 | – | 0.0804 | – | 0.139 | – | 0.331 | – | 0.0428 | – | 0.412 | – | 0.0941 | – | 0.0347
